Patent US9981916B2 (Genentech, Inc., priority 2013, dated 2018)

Target: T1, RORc ligand binding domain (Homo sapiens, UniProt P51449)
T1 construct: host or cells: E. coli
T1 sequence (P51449 269-508 limits assumed): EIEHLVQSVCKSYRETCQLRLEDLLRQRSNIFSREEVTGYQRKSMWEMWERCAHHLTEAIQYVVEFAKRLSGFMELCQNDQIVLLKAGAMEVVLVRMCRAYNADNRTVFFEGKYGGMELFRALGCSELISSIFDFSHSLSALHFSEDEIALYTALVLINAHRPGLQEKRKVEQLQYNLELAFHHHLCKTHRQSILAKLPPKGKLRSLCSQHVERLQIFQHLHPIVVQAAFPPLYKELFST
Assay: In vitro RORc ligand binding assay (25-[3H]hydroxycholesterol displacement, filter binding)
Settings: 6 nM 25-[3H]hydroxycholesterol, 0.6 ug/mL RORc receptor, 3 h at 25° C.
Method in brief: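 Compounds in 5% DMSO, either dose-response or screened at 1 and 10 uM, competed with 6 nM 25-[3H]hydroxycholesterol for 0.6 ug/mL RORc over 3 h at 25° C (HEPES pH 7.4, NaCl, MgCl2, DTT, BSA buffer). Bound tracer was filter-harvested and counted; nonspecific binding came from 1 uM 25-hydroxycholesterol.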

IC50 [µM] | SMILES
0.323 | CC1(C)[C@H]2CC[C@]1(Cc1noc(CO)n1)c1nnc(-c3c(F)cccc3F)cc12 [Example 61, (3-{[(5R,8R)-3-(2,6-difluorophenyl)-9,9-dimethyl-6,7-dihydro-5,8-methanocinnolin-8(5H)-yl]methyl}-1,2,4-oxadiazol-5-yl)methanol]
0.032 | CCN(C[C@]12CC[C@H](c3cc(-c4c(F)cccc4F)nnc31)C2(C)C)C(=O)CCNC(N)=O [Example 343, N-(((5S,8R)-3-(2,6-difluorophenyl)-9,9-dimethyl-5,6,7,8-tetrahydro-5,8-methanocinnolin-8-yl)methyl)-N-ethyl-3-ureidopropanamide]
0.961 | CC1(C)[C@@H]2CC[C@@]1(N1CCCC1=O)c1nnc(-c3c(F)cccc3F)cc12 [Example 253, 1-((5S,8S)-3-(2,6-difluorophenyl)-9,9-dimethyl-5,6,7,8-tetrahydro-5,8-methanocinnolin-8-yl)pyrrolidin-2-one]
3.32 | CC(=O)Nc1ccc(-c2cc3c(nn2)[C@@]2(C)CC[C@@H]3C2(C)C)cn1 [Example 95, N-{5-[(5R,8S)-8,9,9-trimethyl-5,6,7,8-tetrahydro-5,8-methanocinnolin-3-yl]pyridin-2-yl}acetamide]
0.261 | COc1nnc([C@@]23CC[C@@H](c4cc(-c5c(F)cccc5F)nnc42)C3(C)C)o1 [Example 105, (5R,8R)-3-(2,6-difluorophenyl)-8-(5-methoxy-1,3,4-oxadiazol-2-yl)-9,9-dimethyl-5,6,7,8-tetrahydro-5,8-methanocinnoline]
2.44 | CC1(C)[C@@H]2CC[C@@]1(C(=O)N1CCC3(COC3)C1)c1nnc(-c3c(F)cccc3F)cc12 [Example 218, ((5S,8S)-3-(2,6-difluorophenyl)-9,9-dimethyl-5,6,7,8-tetrahydro-5,8-methanocinnolin-8-yl)(2-oxa-6-azaspiro[3.4]octan-6-yl)methanone]
5.65 | Cc1noc(NC(=O)[C@]23CC[C@H](c4cc(-c5c(F)cccc5F)nnc42)C3(C)C)n1 [Example 85, (5S,8S)-3-(2,6-difluorophenyl)-9,9-dimethyl-N-(3-methyl-1,2,4-oxadiazol-5-yl)-6,7-dihydro-5,8-methanocinnoline-8(5H)-carboxamide]
0.044 | CC1(C)[C@H]2CC[C@]1(c1ccon1)c1nnc(-c3c(F)cccc3F)cc12 [Example 197, 3-((5R,8R)-3-(2,6-difluorophenyl)-9,9-dimethyl-5,6,7,8-tetrahydro-5,8-methanocinnolin-8-yl)isoxazole]
0.126 | CC1(C)[C@H]2CC[C@]1(COc1ccccn1)c1nnc(-c3c(F)cccc3F)cc12 [Example 120, (5R,8R)-3-(2,6-difluorophenyl)-9,9-dimethyl-8-[(pyridin-2-yloxy)methyl]-5,6,7,8-tetrahydro-5,8-methanocinnoline]
4.81 | CC1(C)[C@@H]2CC[C@@]1(CN1CCCC1=O)c1nnc(-c3ccccc3F)cc12 [Example 18, 1-{[(5S,8R)-3-(2-fluorophenyl)-9,9-dimethyl-6,7-dihydro-5,8-methanocinnolin-8(5H)-yl]methyl}pyrrolidin-2-one]
1.92 | CC1(C)[C@H]2CC[C@]1(CN1CC(C#N)C1)c1nnc(-c3c(F)cccc3F)cc12 [Example 326, 1-(((5R,8S)-3-(2,6-difluorophenyl)-9,9-dimethyl-5,6,7,8-tetrahydro-5,8-methanocinnolin-8-yl)methyl)azetidine-3-carbonitrile]
0.039 | CC1(C)[C@H]2CC[C@]1(c1cocn1)c1nnc(-c3c(F)cccc3F)cc12 [Example 114, (5R,8S)-3-(2,6-difluorophenyl)-9,9-dimethyl-8-(1,3-oxazol-4-yl)-5,6,7,8-tetrahydro-5,8-methanocinnoline]
0.298 | CN(C)Cc1nc(C[C@@]23CC[C@@H](c4cc(-c5c(F)cccc5F)nnc42)C3(C)C)no1 [Example 66, 1-(3-{[(5R,8R)-3-(2,6-difluorophenyl)-9,9-dimethyl-6,7-dihydro-5,8-methanocinnolin-8(5H)-yl]methyl}-1,2,4-oxadiazol-5-yl)-N,N-dimethylmethanamine]
1.89 | CN(C)Cc1nnc([C@@]23CC[C@@H](c4cc(-c5c(F)cccc5F)nnc42)C3(C)C)o1 [Example 196, 1-(5-((5R,8R)-3-(2,6-difluorophenyl)-9,9-dimethyl-5,6,7,8-tetrahydro-5,8-methanocinnolin-8-yl)-1,3,4-oxadiazol-2-yl)-N,N-dimethylmethanamine]
0.137 | Cc1ocnc1[C@]12CC[C@H](c3cc(-c4c(F)cccc4F)nnc31)C2(C)C [Example 228, 4-((5S,8R)-3-(2,6-difluorophenyl)-9,9-dimethyl-5,6,7,8-tetrahydro-5,8-methanocinnolin-8-yl)-5-methyloxazole]
0.624 | CNC(=O)N(C)C[C@]12CC[C@H](c3cc(-c4ccccc4F)nnc31)C2(C)C [Example 43, 1-{[(5S,8R)-3-(2-fluorophenyl)-9,9-dimethyl-6,7-dihydro-5,8-methanocinnolin-8(5H)-yl]methyl}-1,3-dimethylurea]
0.045 | COC[C@@]12CC[C@@H](c3cc(-c4c(F)cccc4F)nnc31)C2(C)C [Example 30, (5R,8R)-3-(2,6-difluorophenyl)-8-(methoxymethyl)-9,9-dimethyl-5,6,7,8-tetrahydro-5,8-methanocinnoline]
0.131 | Cc1nnc(C[C@@]23CC[C@@H](c4cc(-c5c(F)cccc5F)nnc42)C3(C)C)o1 [Example 65, (5R,8R)-3-(2,6-difluorophenyl)-9,9-dimethyl-8-[(5-methyl-1,3,4-oxadiazol-2-yl)methyl]-5,6,7,8-tetrahydro-5,8-methanocinnoline]
0.844 | CC(C)OC1CN(C(=O)[C@]23CC[C@H](c4cc(-c5c(F)cccc5F)nnc42)C3(C)C)C1 [Example 235, ((5S,8S)-3-(2,6-difluorophenyl)-9,9-dimethyl-5,6,7,8-tetrahydro-5,8-methanocinnolin-8-yl)(3-isopropoxyazetidin-1-yl)methanone]
0.59 | CC1(C)[C@H]2CC[C@]1(CNCCC#N)c1nnc(-c3c(F)cccc3F)cc12 [Example 309, 3-((((5R,8S)-3-(2,6-difluorophenyl)-9,9-dimethyl-5,6,7,8-tetrahydro-5,8-methanocinnolin-8-yl)methyl)amino) propanenitrite]
0.07 | CC1CN(C(=O)[C@]23CC[C@H](c4cc(-c5c(F)cccc5F)nnc42)C3(C)C)C1 [Example 100, [(5S,8S)-3-(2,6-difluorophenyl)-9,9-dimethyl-6,7-dihydro-5,8-methanocinnolin-8(5H)-yl](3-methylazetidin-1-yl)methanone]
0.35 | C[C@H]1CN(C[C@@]23CC[C@@H](c4cc(-c5c(F)cccc5F)nnc42)C3(C)C)C(=O)O1 [Example 315, (S)-3-(((5R,8S)-3-(2,6-difluorophenyl)-9,9-dimethyl-5,6,7,8-tetrahydro-5,8-methanocinnolin-8-yl)methyl)-5-methyloxazolidin-2-one]
0.217 | CC1(C)[C@@H]2CC[C@@]1(C(=O)N1CC3(CCC3)C1)c1nnc(-c3c(F)cccc3F)cc12 [Example 240, ((5S,8S)-3-(2,6-difluorophenyl)-9,9-dimethyl-5,6,7,8-tetrahydro-5,8-methanocinnolin-8-yl)(2-azaspiro[3.3]heptan-2-yl)methanone]
0.019 | COCC1CN(C(=O)[C@]23CC[C@H](c4cc(-c5c(F)cccc5F)nnc42)C3(C)C)C1 [Example 140, ((5S,8S)-3-(2,6-difluorophenyl)-9,9-dimethyl-5,6,7,8-tetrahydro-5,8-methanocinnolin-8-yl)(3-(methoxymethyl)azetidin-1-yl)methanone]
0.089 | Cc1noc(C[C@@]23CC[C@@H](c4cc(-c5c(F)cccc5F)nnc42)C3(C)C)n1 [Example 75, (5R,8R)-3-(2,6-difluorophenyl)-9,9-dimethyl-8-[(3-methyl-1,2,4-oxadiazol-5-yl)methyl]-5,6,7,8-tetrahydro-5,8-methanocinnoline]
3.09 | CC1(C)[C@@H]2CC[C@@]1(C(=O)N1CCC[C@H]1C(N)=O)c1nnc(-c3c(F)cccc3F)cc12 [Example 250, (S)-1-((5S,8S)-3-(2,6-difluorophenyl)-9,9-dimethyl-5,6,7,8-tetrahydro-5,8-methanocinnoline-8-carbonyl)pyrrolidine-2-carboxamide]
2.99 | CC1(O)CN(C(=O)[C@]23CC[C@H](c4cc(-c5c(F)cccc5F)nnc42)C3(C)C)C1 [Example 92, [(5S,8S)-3-(2,6-difluorophenyl)-9,9-dimethyl-6,7-dihydro-5,8-methanocinnolin-8(5H)-yl](3-hydroxy-3-methylazetidin-1-yl)methanone]
2.75 | Cc1ccnc(C2CN(C(=O)[C@@]34CC[C@@H](c5cc(-c6ccccc6F)nnc53)C4(C)C)C2)n1 [Example 181, ((5R,8R)-3-(2-fluorophenyl)-9,9-dimethyl-5,6,7,8-tetrahydro-5,8-methanocinnolin-8-yl)(3-(4-methylpyrimidin-2-yl)azetidin-1-yl)methanone]
2.1 | CNC(=O)[C@]12CC[C@H](c3cc(-c4ccccc4F)nnc31)C2(C)C [Example 334, (5S,8S)-3-(2-fluorophenyl)-N,9,9-trimethyl-5,6,7,8-tetrahydro-5,8-methanocinnoline-8-carboxamide]

SMILES | IC50 [µM]
CC1(C)[C@@H]2CC[C@@]1(C(=O)NCc1ccc(F)cc1)c1nnc(-c3ccccc3F)cc12 [Example 133, (5S,8S)-N-(4-fluorobenzyl)-3-(2-fluorophenyl)-9,9-dimethyl-5,6,7,8-tetrahydro-5,8-methanocinnoline-8-carboxamide] | 0.876
